# “Also recorded” adds a separate entry of the source.
# Columns and labels:
# [1] = tested on: subcutaneous U-87 MG.luc2 tumors; test: In vivo photothermal therapy (PTT) in subcutaneous mouse model of human glioblastoma; design: species or system mice; details: for median survival: endpoint tumor 1000 mm^3; for highest temperature reached on tumor surface during PTT: 46 nmol injected four hours before PTT, 5 minutes NIR light at 2 W/cm^2
# Experimental: The animal experiments were approved by the Danish Animal Welfare Council, Ministry of Justice. For the in vivo studies, U-87 MG.luc2 cells were cultured in Dulbecco's modified eagle medium supplemented with 10% fetal bovine serum and 1% penicillin-streptomycin (Thermo Fisher Scientific) at 37° C. and in 5% CO2. When cells reached 70% confluence, they were harvested and 2-3×10^6 cells in 100 μl of PBS were inoculated into the left flank of NMRI nude female mice (Janvier Labs, France). Animals were left to grow tumors until they reached 300 mm^3 (day −1). From then on, tumors were measured every other day with the use of a caliper, and tumor volume calculated through the formula: (length×width^2)*0.5. When tumors reached 1,000 mm^3, animals were euthanized.
# When tumors reached 300 mm^3, mice were divided into 5 groups: ICG-Glu-Glu-AE105 group (mice injected with 46 nmol ICG-Glu-Glu-AE105 four hours before PTT, n=6); ICG group (mice injected with 46 nmol of unconjugated ICG four hours before PTT, n=4); Saline group (mice injected with saline four hours before PTT, n=4); sham group (mice injected with ICG-Glu-Glu-AE105 and no PTT, n=5) and a control group (no injection, no PTT, n=4). Animals were given analgesia (buprenorphin, 0.3 mg/ml) right before the laser treatment and every 6 to 8 hours until deemed necessary. For PTT, animals were anesthetized with sevoflurane as previously described and placed under the laser beam for five minutes at 2 W/cm^2. The tumors were swabbed with glycerol, an index-matching agent, prior to the laser treatment to facilitate light penetration (Deng et al. 2011, Vargas et al., 1999, Simon et al., 2019). The temperatures reached on the tumor surface were detected with a thermal camera, as described for the in vitro experiments.
# Animals were bioluminescence-scanned a day before PTT, on PTT day and afterwards every other day until endpoints were reached, using IVIS Lumina XR and acquisition software Living Image (Caliper life Sciences, Hopkinton, Calif., USA). For these bioluminescence scans, luciferin was injected intraperitoneally ([…]) ten minutes before the scan. Animals were then anesthetized as described in the previous sections and placed in the prone position. The excitation filter was set to 710 nm and the emission filter was set on ICG.
# The fluorescence scans were performed to detect ICG signal before and after PTT using the Fluobeam®800 NIR-camera as described for the accumulation study.
# The Kaplan-Meier method was used to create the survival curves, and they were compared through the log-rank test. The maximum temperatures on tumor surface were compared using one-way ANOVA with Tukey's multiple comparisons test. The fluorescence emitted by ICG measured by the Fluobeam before and after PTT was compared using two-way ANOVA with Sidak's multiple comparisons test. The data was plotted in Prism7 and shown as mean±SEM.
# After determining ideal dose and treatment schedule, different groups of mice were set up in order to test the ability of ICG-Glu-Glu-AE105 as a photothermal agent, capable of specifically ablating tumors in vivo. For this, mice were injected subcutaneously with U-87 MG.luc2 cells, a type of glioblastoma cells expressing luciferase, which allows for bioluminescence imaging when luciferin is injected. The bioluminescence signal, detected when the reactive luciferin was injected and oxidized by the enzyme luciferase, serves as a way to determine treatment success and follow tumor growth. […] The timeline for the experiments can be seen on FIG. 3. On baseline (day −1), mice underwent a pre-treatment bioluminescence scan. Following, on treatment day (day 0), mice were injected with either ICG-Glu-Glu-AE105, ICG alone, saline or not injected as it was the case for the control group. Approximately four hours after injection, all groups but sham and control were irradiated for 5 minutes with NIR light at 2 W/cm2, and the temperatures on tumor surface were measured with a FLIR camera. […]
# [2] = In vitro heating of solutions under NIR laser irradiation (FLIR thermal camera); type: physicochemical; details: NIR laser 2 W/cm^2; for maximum temperature in solution / temperature reached in solution: five minutes irradiation; for temperature reached in solution: 228 nmol; for maximum temperature of solution: irradiated for ten minutes
# Experimental: The ability of ICG to generate high temperatures when irradiated with NIR light was measured in vitro. Different concentrations (228, 46, 23 and 12 nmol) of unconjugated ICG and ICG-Glu-Glu-AE105 in solution (0.2 g/ml (2-hydroxypropyl)-β-cyclodextrin in water and DMSO) were placed in a plastic cuvette under the laser beam. The laser was turned on for five minutes at 2 W/cm2 and the temperature measured with a thermal camera (FLIR T-440 camera), taking images every 30 seconds. The images were analyzed using the FLIR tools software.
# In order to test the ability of ICG-Glu-Glu-AE105 to heat under NIR light, different concentrations of the compound in solution were placed in a plastic cuvette under a laser, at an intensity of 2 W/cm^2. The samples were then irradiated for ten minutes and the temperatures detected with a FLIR camera. For the highest concentration tested, 0.5 mg/ml, temperature increased fast in the first minutes and slower and in a more steady way after that, reaching a maximum temperature of 70.8±3° C. after ten minutes of irradiation. In contrast, lower concentrations reached their maximum peak fast; at five minutes for 0.1 mg/ml (62.7±1.6° C.), and around two to three minutes for 0.05 and 0.025 mg/ml (51.4±0.9 and 40.7±0.4° C. respectively). From that point, temperatures started to decrease most likely due to the irreversible degradation of ICG, which impedes heat generation (Wang et al., 2013).
# Different concentrations of ICG in solution were irradiated as it was done for the conjugated dye. […] As expected, the maximum temperature was very similar to the one reached by 0.5 mg/ml of ICG-Glu-Glu-AE105, because a concentration of 0.5 mg/ml of ICG-Glu-Glu-AE105 corresponds to approximately 0.18 mg/ml of ICG alone. […] 0.05 mg/ml of ICG reached a maximum of 68.8±0.7° C. after seven minutes of irradiation, meanwhile 0.025 mg/ml of ICG peaked at three minutes at 50±0.2° C.
# 5 minutes irradiation trials were also made with reference to testing the ability of ICG-Glu-Glu-AE105 to heat under NIR light. See the set up with the compound in solution placed in a plastic cuvette under a laser beam (intensity 2 W/cm^2) in FIG. 1a. In this case the samples were irradiated for five minutes and the maximum temperatures were recorded with a FLIR camera. (FIG. 1b).
# However, it was observed that the heat was mainly localized at the top of the sample and not evenly distributed throughout the solution. […] An important detail observed was the temperature decrease after reaching a certain peak, most likely due to the irreversible degradation of ICG, which impedes heat generation (Wang, Y.-G., Kim, H., Mun, S., Kim, D. & Choi, Y).
# [3] = tested on: U-87 MG.luc2 tumor tissue; test: Tumor response ex vivo: H&E staining and uPAR immunohistochemistry of tumors resected 2 days after PTT; type: in vivo, mice; details: n=2 per group
# Experimental: Tumors were resected from n=2 mice per group two days after PTT. Tumors were fixated in formaldehyde overnight, and afterwards conserved in ethanol for their later embedding in paraffin. To perform the histology experiments, tumors were resected in 4 μm slices in a microtome (Thermo Scientific Microm HM355S). The tissue slides were left to dry for at least 1.5 hours, and then heated first at 40 and after at 60° C. Following, slides were submerged in HistoClear to achieve deparaffinization and rehydrated through a series of EtOH to water. For hematoxylin and eosin staining, the tissue slides were stained with hematoxylin for 5 minutes, rinsed and stained with eosin for 3 minutes.
# For immunohistochemistry, the rehydrated tissue slides underwent heat-induced epitope retrieval (HIER) by covering the tissue slides with 250 mL citrate buffer (pH=6), and steaming them at 100° C. for 15 minutes. […]
# Finally, tumors from mice receiving the different treatments (n=2) were resected at day 2 (after PTT) and H&E stained to confirm changes in tumor morphology due to treatment ex vivo (FIG. 7). […] Finally, macrophages were detected through CD68 staining to observe co-localization with uPAR signal, which could be noted, again, for all viable tumor regions.
# [4] = 46 nmol four hours before PTT (5 minutes, 2 W/cm^2)
Compound,"median survival [1, 4] [days]",highest temperature reached on tumor surface during PTT [1],maximum temperature in solution ([2]; 12 nmol),maximum temperature in solution ([2]; 23 nmol),temperature reached in solution [2],maximum temperature of solution ([2]; 0.025 mg/ml in solution) [°C],maximum temperature of solution ([2]; 0.05 mg/ml in solution) [°C],maximum temperature of solution ([2]; 0.1 mg/ml in solution) [°C],H&E staining of tumor tissue [3],uPAR signal in tumor tissue (immunological staining) [3],"tumor growth after PTT ([1]; 46 nmol four hours before PTT, caliper measurement, compared to all the other groups)","complete tumor disappearance after PTT ([1]; n=6, followed until 60 days after PTT)","bioluminescence signal after PTT ([1]; ratio FLUX (day X/day -1), versus all the other groups)","median survival ([1]; sham group: injected, no laser treatment) [days]",maximum temperature of solution ([2]; 0.5 mg/ml in solution) [°C]
"CC1(C)C(/C=C/C=C/C=C/C=C2\N(CCCCS(=O)(=O)O)c3ccc4ccccc4c3C2(C)C)=[N+](CCCCS(=O)(=O)[O-])c2ccc3ccccc3c21 [ICG, indocyanine green]",10,around 45 °C,around 38 °C,below 50 °C,around 80 °C,50±0.2,68.8±0.7,71.4±1.1,,,,,,,
CC(C)C[C@H](NC(=O)[C@H](Cc1ccc(O)cc1)NC(=O)C(CCCNC(=N)N)NC(=O)C(CO)NC(=O)C(Cc1ccccc1)NC(=O)[C@H](CC1CCCCC1)NC(=O)C(CC(=O)O)NC(=O)C(CCC(=O)O)NC(=O)C(CCC(=O)O)NC(=O)CCCCCN1\C(=C/C=C/C=C/C=C/C2=[N+](CCCCS(=O)(=O)[O-])c3ccc4ccccc4c3C2(C)C)C(C)(C)c2c1ccc1ccccc21)C(=O)N[C@@H](Cc1c[nH]c2ccccc12)C(=O)N[C@@H](CO)C(=O)O (stereo partly drawn) [ICG-Glu-Glu-AE105],13.5,around 52 °C,,,around 80 °C,40.7±0.4,51.4±0.9,62.7±1.6,high degree of cell death; also recorded: tissue disruption and hemorrhage,decrease in uPAR signal,delay in tumor growth,one mouse even experienced complete tumor disappearance,reduced signal,8,70.8±3
